Measured values: patent publication US20260240827A1, “PALATABLE LIQUID SOLUTION CONTAINING HIGH CONCENTRATION OF MIGLUSTAT” (THERANEXUS, priority 2022, published 2026)

Assay: not given
Conditions: ambient temperature; cited from earlier work

| Compound | Solubility in water [mg/mL] |
| --- | --- |
| CCCCN1C[C@H](O)[C@@H](O)[C@H](O)[C@H]1CO [Miglustat, 1,5-(butylimino)-1,5-dideoxy-D-glucitol] | > 1000 |

Assay: Drug excipient compatibility: physical description after storage
Type: physicochemical
Conditions: up to 4 weeks 40° C./75% RH and 25° C./60% RH, 60° C. 1 week
Method: This study was conducted to assess the compatibility of miglustat with excipient candidates that can be used in the liquid Miglustat product. Each different excipient was manually stirred with miglustat and stored into amber glass vials.
Vials were stored in climatic chambers with different environmental conditions: 25° C./60% RH, 40° C./75% RH and 60° C. for up to 4 weeks, in closed containers. (RH=relative humidity)
After the defined storage time, samples were exited from the climatic chambers. Operators observed the solution and described the appearance of the solution by visual inspection.

| Compound | Compatibility of excipient with Miglustat in binary mixture (DEC study conclusion) |
| --- | --- |
| CC1=CC(=O)NS(=O)(=O)O1 [Acesulfame Potassium] | not compatible |
| Cl [Hydrochloric acid] | not compatible |
| O=C([O-])c1ccccc1.[Na+] [Sodium Benzoate, sodium salt of benzoic acid] | compatible |

Next, values leading:

| Compatibility of excipient with Miglustat in binary mixture (DEC study conclusion) | Compound |
| --- | --- |
| compatible | O=C(O)C(O)C(O)C(=O)O (stereo not drawn) [Tartaric acid, 2,3-Dihydroxybutanedioic acid] |
| not compatible | O=C1O[C@H]([C@@H](O)CO)C(O)=C1O [ascorbic acid] |
